Literature values as cited in patent US7419996B2, “Parenteral and oral formulations of benzimidazoles” (The University of Houston, priority 2003, dated 2008).
Like-named read-outs stand apart in the source and are kept apart here.

Test system: rodents

In the case of `C[S+](C)[O-]` [DMSO, dimethylsulfoxide], the LD50 (intravenously) is given as 3.1 gm/kg and the LD50 (orally) is given as 7.92 gm/kg.
